Experimental data published in PubChem BioAssay AID256 (DTP/NCI, 2004).
Values joined by “and” are separate entries in the source; they are usually repeats but may differ in a detail not shown here. Equal entries are not always repeated. Inconclusive results and toxic doses are left out. The calls were made as follows: active = survival T/C of 150% or more; inactive = T/C below 125% in these data.

Tested on: CD2F1 mice, L1210 leukemia ip, survival T/C
Test: NCI In Vivo Anticancer Drug Screen. Data for tumor model L1210 Leukemia (intraperitoneal) in CD2F1 (CDF1) mice
Details: higher = longer survival
Outline: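 Each value reflects a quotient of treated over vehicle control outcomes in mice with a transplanted tumor.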

[1] = endpoint: mean survival time, dose: 100.0 mg/kg/injection, schedule: Q04DX003 (ip), vehicle: saline with Tween-80
[2] = endpoint: mean survival time, dose: 200.0 mg/kg/injection, schedule: Q01DX009 (ip), vehicle: saline with Tween-80
[3] = endpoint: mean survival time, dose: 200.0 mg/kg/injection, schedule: Q04DX003 (ip), vehicle: saline with Tween-80
[4] = endpoint: mean survival time, dose: 75.0 mg/kg/injection, schedule: Q01DX001 (ip), vehicle: saline
[5] = endpoint: mean survival time, dose: 150.0 mg/kg/injection, schedule: Q01DX001 (ip), vehicle: saline
[6] = endpoint: mean survival time, dose: 100.0 mg/kg/injection, schedule: Q04DX002 (ip), vehicle: saline with Tween-80
[7] = endpoint: mean survival time, dose: 200.0 mg/kg/injection, schedule: Q04DX002 (ip), vehicle: saline with Tween-80
[8] = endpoint: mean survival time, dose: 400.0 mg/kg/injection, schedule: Q04DX002 (ip), vehicle: saline with Tween-80
[9] = endpoint: mean survival time, dose: 400.0 mg/kg/injection, schedule: Q04DX003 (ip), vehicle: saline with Tween-80
[10] = endpoint: mean survival time, dose: 100.0 mg/kg/injection, schedule: Q01DX009 (ip), vehicle: saline with Tween-80
[11] = endpoint: mean survival time, dose: 50.0 mg/kg/injection, schedule: Q01DX009 (ip), vehicle: saline
[12] = endpoint: mean survival time, dose: 100.0 mg/kg/injection, schedule: Q01DX009 (ip), vehicle: saline
[13] = endpoint: mean survival time, dose: 200.0 mg/kg/injection, schedule: Q01DX009 (ip), vehicle: saline
[14] = endpoint: mean survival time, dose: 400.0 mg/kg/injection, schedule: Q01DX009 (ip), vehicle: saline

Measured: T/C

O=S=Nc1ccc(S(=O)(=O)c2ccc(N=S=O)cc2)cc1
inactive: endpoint: mean survival time, dose: 50.0 mg/kg/injection, schedule: Q01DX009 (ip), vehicle: saline with Tween-80 96 % of control | [1] 95 % of control | [2] 101 % of control | [3] 95 % of control

CCC(C)(O)c1cnc(CC(C)C)c(=O)n1O (centres undefined)
inactive: [4] 98 % of control | [5] 102 % of control

Brc1ccc2sc3ccccc3c2c1
inactive: [6] 102 % of control | [7] 89 % of control | [8] 91 % of control

O=C(OC1CCCCC1c1ccccc1)c1ccc([N+](=O)[O-])cc1 (centres undefined)
inactive: [1] 90 % of control | [3] 98 % of control | [9] 90 % of control

CCC(C)[Se][Se]C(C)CC (centres undefined)
inactive: endpoint: mean survival time, dose: 25.0 mg/kg/injection, schedule: Q04DX003 (ip), vehicle: saline with Tween-80 93 % of control

CC1(O)CC23CC(O)C4(O)C(CC(O)C4(C)C)C(C)(O)C2CCC1C3O (centres undefined)
inactive: endpoint: median survival time, dose: 0.06 mg/kg/injection, schedule: Q01DX009 (ip), vehicle: Klucel (hydroxypropylcellulose) (HPC) 97 % of control | endpoint: median survival time, dose: 0.12 mg/kg/injection, schedule: Q01DX009 (ip), vehicle: Klucel (hydroxypropylcellulose) (HPC) 96 % of control | endpoint: median survival time, dose: 0.25 mg/kg/injection, schedule: Q01DX009 (ip), vehicle: Klucel (hydroxypropylcellulose) (HPC) 102 % of control | endpoint: median survival time, dose: 0.5 mg/kg/injection, schedule: Q01DX009 (ip), vehicle: Klucel (hydroxypropylcellulose) (HPC) 97 % of control

CN(N)c1nc(N)c(C#N)c(C#N)c1C#N
inactive: endpoint: mean survival time, dose: 50.0 mg/kg/injection, schedule: Q01DX001 (ip), vehicle: saline 97 % of control | endpoint: mean survival time, dose: 100.0 mg/kg/injection, schedule: Q01DX001 (ip), vehicle: saline 101 % of control | endpoint: mean survival time, dose: 200.0 mg/kg/injection, schedule: Q01DX001 (ip), vehicle: saline 101 % of control | endpoint: mean survival time, dose: 400.0 mg/kg/injection, schedule: Q01DX001 (ip), vehicle: saline 97 % of control

O=C(CNC(=O)Nc1cccc([N+](=O)[O-])c1)NNC(=O)Nc1ccc(Cl)c([N+](=O)[O-])c1
inactive: [10] 91 % of control | [2] 87 % of control

COc1ccc2c(c1O)-c1c(OC)c(OC)cc3c1C(C2)N(C)CC3 (centres undefined)
inactive: endpoint: mean survival time, dose: 100.0 mg/kg/injection, schedule: Q01DX001 (ip), vehicle: saline with Tween-80 97 % of control | endpoint: mean survival time, dose: 200.0 mg/kg/injection, schedule: Q01DX001 (ip), vehicle: saline with Tween-80 97 % of control | endpoint: mean survival time, dose: 400.0 mg/kg/injection, schedule: Q01DX001 (ip), vehicle: saline with Tween-80 108 % of control

OB(O)Oc1ccc(Br)cc1
inactive: endpoint: mean survival time, dose: 50.0 mg/kg/injection, schedule: Q01DX009 (ip), vehicle: other 95 % of control | endpoint: mean survival time, dose: 100.0 mg/kg/injection, schedule: Q01DX009 (ip), vehicle: other 91 % of control | endpoint: mean survival time, dose: 200.0 mg/kg/injection, schedule: Q01DX009 (ip), vehicle: other 102 % of control

O=c1[nH]c(=O)c2nc(-c3cccnc3)cnc2[nH]1
inactive: endpoint: mean survival time, dose: 12.5 mg/kg/injection, schedule: Q01DX009 (ip), vehicle: saline 98 % of control and 103 % of control | endpoint: mean survival time, dose: 25.0 mg/kg/injection, schedule: Q01DX009 (ip), vehicle: saline 101 % of control and 102 % of control | [11] 93 % of control and 104 % of control | [12] 98 % of control and 110 % of control | [13] 101 % of control and 110 % of control | [14] 114 % of control and 102 % of control

O=c1[nH]c(=O)n(C2CC(O)C(CO)O2)cc1/C=N/O (centres undefined)
inactive: endpoint: mean survival time, dose: 12.5 mg/kg/injection, schedule: Q01DX005 (ip), vehicle: distilled water + Tween-80 101 % of control | endpoint: mean survival time, dose: 25.0 mg/kg/injection, schedule: Q01DX005 (ip), vehicle: distilled water + Tween-80 103 % of control | endpoint: mean survival time, dose: 50.0 mg/kg/injection, schedule: Q01DX005 (ip), vehicle: distilled water + Tween-80 101 % of control | endpoint: mean survival time, dose: 100.0 mg/kg/injection, schedule: Q01DX005 (ip), vehicle: distilled water + Tween-80 98 % of control | endpoint: mean survival time, dose: 200.0 mg/kg/injection, schedule: Q01DX005 (ip), vehicle: distilled water + Tween-80 101 % of control

O=C(COc1ccccc1[N+](=O)[O-])CN1C(=O)c2ccccc2C1=O
inactive: [6] 91 % of control | [7] 91 % of control | [8] 91 % of control

COc1cc([N+](=O)[O-])ccc1NC(=O)OC/C=C/c1ccccc1
inactive: [10] 92 % of control | [2] 91 % of control

CCCCC(O)C(=O)O (centres undefined)
inactive: [4] 94 % of control | [5] 96 % of control

Cc1cn(C2OC(CO)C(O)C2O)c(=O)nc1N (centres undefined)
inactive: endpoint: median survival time, dose: 25.0 mg/kg/injection, schedule: Q01DX005 (ip), vehicle: water 96 % of control | endpoint: median survival time, dose: 50.0 mg/kg/injection, schedule: Q01DX005 (ip), vehicle: water 104 % of control | endpoint: median survival time, dose: 100.0 mg/kg/injection, schedule: Q01DX005 (ip), vehicle: water 104 % of control | endpoint: median survival time, dose: 200.0 mg/kg/injection, schedule: Q01DX005 (ip), vehicle: water 104 % of control

CCN(CC)c1ccc(N=Nc2c(C)nc(N)nc2-c2ccccc2)cc1
inactive: [5] 97 % of control

CC(=O)c1ccc(-c2ccccc2)cc1
inactive: endpoint: mean survival time, dose: 100.0 mg/kg/injection, schedule: Q04DX003 (ip), vehicle: Klucel (hydroxypropylcellulose) (HPC) 102 % of control | endpoint: mean survival time, dose: 200.0 mg/kg/injection, schedule: Q04DX003 (ip), vehicle: Klucel (hydroxypropylcellulose) (HPC) 103 % of control | endpoint: mean survival time, dose: 400.0 mg/kg/injection, schedule: Q04DX003 (ip), vehicle: Klucel (hydroxypropylcellulose) (HPC) 102 % of control

CC1CC(C)(C)NC(c2ccccc2)O1 (centres undefined)
inactive: [1] 94 % of control | [3] 94 % of control | [9] 102 % of control

BrC1CCCCCC12OCCO2 (centres undefined)
inactive: [1] 86 % of control | [3] 94 % of control | [9] 89 % of control

NCc1ccc(O)c(O)c1
inactive: [11] 115 % of control | [12] 118 % of control and 124 % of control | [13] 123 % of control and 124 % of control | [14] 114 % of control | endpoint: mean survival time, dose: 800.0 mg/kg/injection, schedule: Q01DX009 (ip), vehicle: saline 118 % of control | endpoint: median survival time, dose: 28.13 mg/kg/injection, schedule: Q03HX024 (ip), vehicle: saline 111 % of control | endpoint: median survival time, dose: 56.25 mg/kg/injection, schedule: Q03HX024 (ip), vehicle: saline 110 % of control | endpoint: median survival time, dose: 300.0 mg/kg/injection, schedule: Q03HX024 (ip), vehicle: saline 110 % of control

COC(=O)c1ccccc1NCCNc1ccccc1C(=O)OC
inactive: endpoint: mean survival time, dose: 50.0 mg/kg/injection, schedule: Q04DX002 (ip), vehicle: saline with Tween-80 100 % of control | [7] 95 % of control | [8] 88 % of control

Cc1cc(OC(=O)N2CCCCC2)c(C(C)C)cc1[N+](C)(C)C
inactive: endpoint: mean survival time, dose: 0.06 mg/kg/injection, schedule: Q01DX009 (ip), vehicle: saline 95 % of control | endpoint: mean survival time, dose: 0.07 mg/kg/injection, schedule: Q04DX003 (ip), vehicle: saline sonified 97 % of control | endpoint: mean survival time, dose: 0.13 mg/kg/injection, schedule: Q04DX003 (ip), vehicle: saline sonified 106 % of control | endpoint: mean survival time, dose: 0.25 mg/kg/injection, schedule: Q04DX003 (ip), vehicle: saline sonified 100 % of control

C=C(Br)CN=C=S
inactive: endpoint: mean survival time, dose: 12.5 mg/kg/injection, schedule: Q04DX003 (ip), vehicle: saline 94 % of control | endpoint: mean survival time, dose: 25.0 mg/kg/injection, schedule: Q04DX003 (ip), vehicle: saline 94 % of control | endpoint: mean survival time, dose: 50.0 mg/kg/injection, schedule: Q04DX003 (ip), vehicle: saline 88 % of control
